# How the values were obtained:
# Type in all cases: cell-based, human
# ACHN = experiment: NCI screening panel, ACHN (Renal Cancer)
# Description: (§1) Representative compounds of Formula I were screened using the National Cancer Institute (NCI) screening panel, which consists of a panel of human tumor cell lines, representing leukemia, melanoma, and cancers of the lung, colon, ovary, breast, prostate and renal system.
# (§2) After 24 h, two plates of each cell line are fixed in situ with TCA, to represent a measurement of the cell population for each cell line at the time of drug addition (Tz). Experimental drugs are solubilised in dimethyl sulfoxide at 400-fold the desired final maximum test concentration and stored frozen prior to use. At the time of drug addition, an aliquot of frozen concentrate is thawed and diluted to twice the desired final maximum test concentration with complete medium containing 50 μg/mL gentamicin. Additional four, 10-fold or ½ log serial dilutions are made to provide a total of five drug concentrations plus control. Aliquots of 100 μl of these different drug dilutions are added to the appropriate microtiter wells already containing 100 μl of medium, resulting in the required final drug concentrations.
# (§3) Following drug addition, the plates are incubated for an additional 48 h at 37° C., 5% CO2, 95% air, and 100% relative humidity. For adherent cells, the assay is terminated by the addition of cold TCA (trichloroacetic acid). Cells are fixed in situ by the gentle addition of 50 μl of cold 50% (w/v) TCA (final concentration, 10% TCA) and incubated for 60 minutes at 4° C. The supernatant is discarded, and the plates are washed five times with tap water and air dried. Sulforhodamine B (SRB) solution (100 μl) at 0.4% (w/v) in 1% acetic acid is added to each well, and plates are incubated for 10 minutes at room temperature. After staining, unbound dye is removed by washing five times with 1% acetic acid and the plates are air dried. Bound stain is subsequently solubilised with 10 mM trizma base, and the absorbance is read on an automated plate reader at a wavelength of 515 nm. For suspension cells, the methodology is the same except that the assay is terminated by fixing settled cells at the bottom of the wells by gently adding 50 μl of 80% TCA (final concentration, 16% TCA). Using the seven absorbance measurements [time zero, (Tz), control growth, (C), and test growth in the presence of drug at the five concentration levels (Ti)], the percentage growth is calculated at each of the drug concentrations levels. Percentage growth inhibition is calculated as: [(Ti−Tz)/(C−Tz)]×100 for concentrations for which Ti>/=Tz and [(Ti−Tz)/Tz]×100 for concentrations for which Ti<Tz.
# (§4) Three dose response parameters are calculated for each experimental agent. Growth inhibition of 50% (GI50) is calculated from [(Ti−Tz)/(C−Tz)]×100=50, which is the drug concentration resulting in a 50% reduction in the net protein increase (as measured by SRB staining) in control cells during the drug incubation. The drug concentration resulting in total growth inhibition (TGI) is calculated from Ti=Tz. The LC50 (concentration of drug resulting in a 50% reduction in the measured protein at the end of the drug treatment as compared to that at the beginning) indicating a net loss of cells following treatment is calculated from [(Ti−Tz)/Tz]×100=−50. Values are calculated for each of these three parameters if the level of activity is reached. However, if the effect is not reached or is exceeded, the value for that parameter is expressed as greater or less than the maximum or minimum concentration tested.
# RPMI-8226 = experiment: NCI screening panel, RPMI-8226 (Leukemia)
# Description: as §1, §2, §3, §4
# HS 578T = experiment: NCI screening panel, HS 578T (Breast Cancer)
# Description: as §1, §2, §3, §4
# SK-MEL-2 = experiment: NCI screening panel, SK-MEL-2 (Melanoma)
# Description: as §1, §2, §3, §4
# MDA-MB-435 = experiment: NCI screening panel, MDA-MB-435 (Melanoma)
# Description: as §1, §2, §3, §4
# OVCAR-5 = experiment: NCI screening panel, OVCAR-5 (Ovarian Cancer)
# Description: as §1, §2, §3, §4
# U251 = experiment: NCI screening panel, U251 (CNS Cancer)
# Description: as §1, §2, §3, §4
# SK-MEL-5 = experiment: NCI screening panel, SK-MEL-5 (Melanoma)
# Description: as §1, §2, §3, §4
# SF-295 = experiment: NCI screening panel, SF-295 (CNS Cancer)
# Description: as §1, §2, §3, §4
# 786-0 = experiment: NCI screening panel, 786-0 (Renal Cancer)
# Description: as §1, §2, §3, §4
# UO-31 = experiment: NCI screening panel, UO-31 (Renal Cancer)
# Description: as §1, §2, §3, §4
# TK-10 = experiment: NCI screening panel, TK-10 (Renal Cancer)
# Description: as §1, §2, §3, §4
# SK-OV-3 = experiment: NCI screening panel, SK-OV-3 (Ovarian Cancer)
# Description: as §1, §2, §3, §4
# UACC-257 = experiment: NCI screening panel, UACC-257 (Melanoma)
# Description: as §1, §2, §3, §4
structure (smiles),measurement,setting,value
"CC(C)C[C@H](NC(=O)[C@H](COC(F)F)NC(=O)CN1CCOCC1)C(=O)N[C@@H](COC(F)F)C(=O)N[C@@H](Cc1ccccc1)C(=O)[C@@]1(C)CO1 [Example 4, (2S)-N-[(1S)-2-[[(1S)-1-benzyl-2-[(2R)-2-methyloxiran-2-yl]-2-oxo-ethyl]amino]-1-(difluoromethoxymethyl)-2-oxo-ethyl]-2-[[(2S)-3-(difluoromethoxy)-2-[(2-mor-pholinoacetyl)amino]propanoyl]amino]-4 methyl-pentanamide]",Log10GI50,ACHN,−6.32
same,Log10LC50,ACHN,>−4.00
same,Log10TGI50,ACHN,>−4.00
same,Log10GI50,RPMI-8226,−7.51
same,Log10LC50,RPMI-8226,>−4.00
same,Log10TGI50,RPMI-8226,−6.54
same,Log10GI50,HS 578T,−7.71
same,Log10LC50,HS 578T,>−4.00
same,Log10TGI50,HS 578T,−7.01
same,Log10GI50,SK-MEL-2,−7.57
same,Log10LC50,SK-MEL-2,>−4.00
same,Log10TGI50,SK-MEL-2,−6.86
same,Log10GI50,MDA-MB-435,−7.79
same,Log10LC50,MDA-MB-435,−7.09
same,Log10TGI50,MDA-MB-435,−7.44
same,Log10GI50,OVCAR-5,−7.29
same,Log10LC50,OVCAR-5,>−4.00
same,Log10TGI50,OVCAR-5,−6.07
same,Log10GI50,U251,−7.44
same,Log10LC50,U251,−4.62
same,Log10TGI50,U251,−6.48
same,Log10GI50,SK-MEL-5,−7.33
same,Log10LC50,SK-MEL-5,−5.71
same,Log10TGI50,SK-MEL-5,−6.60
same,Log10GI50,SF-295,−7.48
same,Log10LC50,SF-295,−5.22
same,Log10TGI50,SF-295,−6.60
same,Log10GI50,786-0,−6.44
same,Log10LC50,786-0,−4.27
same,Log10TGI50,786-0,−5.58
same,Log10GI50,UO-31,−5.77
same,Log10LC50,UO-31,−4.22
same,Log10TGI50,UO-31,−5.24
same,Log10GI50,TK-10,−6.57
same,Log10LC50,TK-10,>−4.00
same,Log10TGI50,TK-10,−5.48
same,Log10GI50,SK-OV-3,−6.84
same,Log10LC50,SK-OV-3,>−4.00
same,Log10TGI50,SK-OV-3,−6.02
same,Log10GI50,UACC-257,−6.71
same,Log10LC50,UACC-257,−4.14
same,Log10TGI50,UACC-257,−6.11
"CC(C)C[C@H](NC(=O)[C@H](COC(F)F)NC(=O)[C@H](COC(F)F)NC(=O)[C@H](CCc1ccccc1)NC(=O)CN1CCOCC1)C(=O)[C@@]1(C)CO1 [Example 7, (2S)-N-[(1S)-1-(difluoromethoxymethyl)-2-[[(1S)-1-(difluoromethoxymethyl)-2-[[(1S)-3-methyl-1-[(2R)-2-methyloxirane-2-carbo-nyl]butyl]amino]-2-oxo-ethyl]amino]-2-oxo-ethyl]-2-[(2-morpholinoacetyl)amino]-4-phenyl-butanamide]",Log10GI50,ACHN,−6.31
same,Log10LC50,ACHN,>−4.00
same,Log10TGI50,ACHN,>−4.00
same,Log10GI50,RPMI-8226,−7.56
same,Log10LC50,RPMI-8226,>−4.00
same,Log10TGI50,RPMI-8226,−7.04
same,Log10GI50,HS 578T,−7.70
same,Log10LC50,HS 578T,>−4.00
same,Log10TGI50,HS 578T,−6.05
same,Log10GI50,SK-MEL-2,−7.54
same,Log10LC50,SK-MEL-2,>−4.00
same,Log10TGI50,SK-MEL-2,−6.86
same,Log10GI50,MDA-MB-435,−7.83
same,Log10LC50,MDA-MB-435,−7.12
same,Log10TGI50,MDA-MB-435,−7.47
same,Log10GI50,OVCAR-5,−7.31
same,Log10LC50,OVCAR-5,>−4.00
same,Log10TGI50,OVCAR-5,−6.14
same,Log10GI50,U251,−7.63
same,Log10LC50,U251,−5.04
same,Log10TGI50,U251,−6.79
same,Log10GI50,SK-MEL-5,−7.55
same,Log10LC50,SK-MEL-5,−6.35
same,Log10TGI50,SK-MEL-5,−6.99
same,Log10GI50,SF-295,−7.60
same,Log10LC50,SF-295,−6.15
same,Log10TGI50,SF-295,−6.97
same,Log10GI50,786-0,−6.45
same,Log10LC50,786-0,>−4.00
same,Log10TGI50,786-0,−5.33
same,Log10GI50,UO-31,−5.97
same,Log10LC50,UO-31,−4.70
same,Log10TGI50,UO-31,−5.45
same,Log10GI50,TK-10,−6.56
same,Log10LC50,TK-10,>−4.00
same,Log10TGI50,TK-10,−5.24
same,Log10GI50,SK-OV-3,−6.94
same,Log10LC50,SK-OV-3,>−4.00
same,Log10TGI50,SK-OV-3,−5.46
same,Log10GI50,UACC-257,−6.80
same,Log10LC50,UACC-257,>−4.00
same,Log10TGI50,UACC-257,−6.03
"CC(C)C[C@H](NC(=O)[C@H](Cc1ccccc1)NC(=O)[C@H](COC(F)F)NC(=O)[C@H](COC(F)F)NC(=O)CN1CCOCC1)C(=O)[C@@]1(C)CO1 [Example 11, (2S)-2-[[(2S)-3-(difluoromethoxy)-2-[[(2S)-3-(difluoromethoxy)-2-[(2-morpholinoacetyl)-amino]propanoyl]amino]propanoyl]amino]-N-[(1S)-3-methyl-1-[(2R)-2-methyloxirane-2-carbonyl]butyl]-3-phenyl-propanamide]",Log10GI50,ACHN,−6.40
same,Log10LC50,ACHN,>−4.00
same,Log10TGI50,ACHN,>−4.00
same,Log10GI50,RPMI-8226,−7.65
same,Log10LC50,RPMI-8226,>−4.00
same,Log10TGI50,RPMI-8226,−7.02
same,Log10GI50,HS 578T,−7.70
same,Log10LC50,HS 578T,>−4.00
same,Log10TGI50,HS 578T,−6.97
same,Log10GI50,SK-MEL-2,−7.48
same,Log10LC50,SK-MEL-2,>−4.00
same,Log10TGI50,SK-MEL-2,−6.68
same,Log10GI50,MDA-MB-435,−7.90
same,Log10LC50,MDA-MB-435,−7.24
same,Log10TGI50,MDA-MB-435,−7.57
same,Log10GI50,OVCAR-5,−7.37
same,Log10LC50,OVCAR-5,>−4.00
same,Log10TGI50,OVCAR-5,−6.46
same,Log10GI50,U251,−7.59
same,Log10LC50,U251,−4.04
same,Log10TGI50,U251,−6.71
same,Log10GI50,SK-MEL-5,−7.45
same,Log10LC50,SK-MEL-5,−6.23
same,Log10TGI50,SK-MEL-5,−6.83
same,Log10GI50,SF-295,−5.96
same,Log10LC50,SF-295,−5.17
same,Log10TGI50,SF-295,−5.56
same,Log10GI50,786-0,−6.66
same,Log10LC50,786-0,>−4.00
same,Log10TGI50,786-0,−5.63
same,Log10GI50,UO-31,−6.17
same,Log10LC50,UO-31,−4.24
same,Log10TGI50,UO-31,−5.47
same,Log10GI50,TK-10,−6.80
same,Log10LC50,TK-10,>−4.00
same,Log10TGI50,TK-10,−5.30
same,Log10GI50,SK-OV-3,−6.85
same,Log10LC50,SK-OV-3,>−4.00
same,Log10TGI50,SK-OV-3,−4.84
same,Log10GI50,UACC-257,−6.79
same,Log10LC50,UACC-257,>−4.00
same,Log10TGI50,UACC-257,−6.14
